{
  "source": "patent US20100190724A1",
  "about": "“USE OF MELANOCYTE-STIMULATING HORMONE RELEASE-INHIBITING FACTOR AS A THERAPEUTIC AGENT IN THE TREATMENT OF PSEUDOMONAS AERUGINOSA INFECTION” (priority 2007, published 2010)",
  "key": {"[1]": {"assay": "Cytotoxicity testing in MRC-5 cells (CellTiter 96)", "format": "cell-based, human", "conditions": "human, 6 days incubation, read-out: % Cell viability", "method": "(§1) The following day, peptide was added and tested in duplicates."}, "[2]": {"test_system": "IL-5", "assay": "Th1/Th2 cytokine profiling assay: IL-5", "format": "cell-based, Balb/c mice", "conditions": "Ovalbumin-restimulated spleen cells; peptide 10 micrograms per ml; 72 hours"}, "[3]": {"test_system": "MRSA", "format": "cell-based, Staphylococcus Aureus", "conditions": "5 micrograms per ml"}, "[4]": {"test_system": "IL-2", "assay": "Th1/Th2 cytokine profiling assay: IL-2", "format": "cell-based, Balb/c mice", "conditions": "Ovalbumin-restimulated spleen cells; peptide 10 micrograms per ml; 72 hours"}, "[5]": {"test_system": "Human Peripheral Blood Mononuclear Cells (PBMC)", "assay": "B cell proliferation assay (SAC plus Interleukin-2, 3H-thymidine)", "format": "cell-based", "conditions": "peptide 10 micrograms per ml, 3H-thymidine incorporation"}, "[6]": {"test_system": "A549 cells", "assay": "Apoptosis induction assay (Annexin-5)", "format": "cell-based, human", "conditions": "peptide 10 micrograms per ml, 24 hours"}, "[7]": {"test_system": "IFNγ", "assay": "Th1/Th2 cytokine profiling assay: IFNγ", "format": "cell-based, Balb/c mice", "conditions": "Ovalbumin-restimulated spleen cells; peptide 10 micrograms per ml; 72 hours"}, "[8]": {"test_system": "RAW 264.7 cells", "assay": "Phagocytosis assay (Fluorescein-labeled Escherichia coli, flow cytometry)", "format": "cell-based, mouse", "conditions": "peptide 10 micrograms per ml, 30 min preincubation, 60 min ingestion"}, "[9]": {"test_system": "A549 cells", "assay": "Propidium iodide cell cycle assay", "format": "cell-based, human", "conditions": "peptide 10 micrograms per ml, 24 hours, FACS"}, "[10]": {"assay": "Cytotoxicity (dye uptake cell viability) in HBV assay", "format": "cell-based", "conditions": "human, HepG2-2.2.15 cells, peptide 10 micrograms per ml", "method": "(§2) HepG2-2.2.15 cells were plated in 96-well microtiter plates. After 16-24 hours the confluent monolayer of HepG2-2.2.15 cells was washed and the medium was replaced with complete medium containing test peptide—10 micrograms per ml—in duplicate. Lamivudine (3TC) was used as the positive control, while media alone was added to the cells as a negative control (virus control). Three days later the culture medium was replaced with fresh medium containing the peptide. Six days following the initial administration of the peptide, the cell culture supernatants was collected, treated with pronase and DNAse and then used in a real-time quantitative TaqMan PCR assay. The PCR-amplified HBV DNA was detected in real-time by monitoring increases in fluorescence signals that result from the exonucleolytic degradation of a quenched fluorescence probe molecule that hybridizes to the amplified HBV DNA. For each PCR amplification, a standard curve was simultaneously generated using dilutions of purified HBV DNA. Antiviral activity was calculated from the reduction in HBV DNA levels (% virus control). A novel dye uptake assay was then employed to measure cell viability, which is used to calculate toxicity (% cell control)."}, "[11]": {"test_system": "TNF alpha", "assay": "TNF alpha production assay in LPS-stimulated macrophages (ELISA)", "format": "cell-based, human", "conditions": "PBMC-derived macrophages, peptide 10 micrograms per ml, lipopolysaccharide 200 ng/ml, overnight", "description": "Not stimulated macrophages served as negative background control."}, "[12]": {"test_system": "hepatitis B virus (HBV) ayw strain", "assay": "HBV replication assay in HepG2-2.2.15 cells (TaqMan PCR of secreted HBV DNA)", "format": "cell-based", "conditions": "peptide 10 micrograms per ml, six days, HBV DNA by TaqMan PCR", "method": "HepG2-2.2.15 is a stable cell line containing the hepatitis B virus (HBV) ayw strain genome (ATCC Cat. No. CRL-11997). Antiviral compounds blocking any late step of viral replication such as transcription, translation, pregenome encapsidation, reverse transcription, particle assembly and release can be identified and characterized using this cell line.\nas §2, with “Lamivudine (3TC) was used as the positive control, while media alone was added to the cells as a negative control (virus control).” left out, “A novel dye uptake assay was then employed to measure cell viability, which is used to calculate toxicity (% cell control).” left out"}, "[13]": {"test_system": "HIV-1IIB", "assay": "HIV-1 antiviral assay (CPE reduction, MTS) in CEM-SS cells", "format": "cell-based", "conditions": "peptide 10 micrograms per ml, 6 days post-infection"}, "[14]": {"test_system": "A549 cells", "assay": "Apoptosis prevention assay (C2 ceramide, Annexin-5)", "format": "cell-based, human", "conditions": "30 min pretreatment with peptide 10 micrograms per ml, then C2 ceramide"}, "[15]": {"assay": "Cytotoxicity (MTS cell viability) in HIV-1 experiments", "conditions": "human, CEM-SS cells"}, "[16]": {"test_system": "HUVEC", "assay": "Endothelial tube formation assay", "format": "cell-based, human", "conditions": "peptide 10 micrograms per ml, 20 hours", "description": "Positive control was vehicle only."}, "[17]": {"test_system": "Pseudomonas aeruginosa", "format": "cell-based", "conditions": "5 micrograms per ml"}, "[18]": {"test_system": "Primary Human endothelial cells (HUVEC)", "assay": "Endothelial cell migration assay", "format": "cell-based", "conditions": "peptide 10 micrograms per ml, 22 hours"}, "[19]": {"test_system": "IL-4", "assay": "Th1/Th2 cytokine profiling assay: IL-4", "format": "cell-based, Balb/c mice", "conditions": "Ovalbumin-restimulated spleen cells; peptide 10 micrograms per ml; 72 hours"}, "[20]": {"test_system": "TNF-a", "assay": "Th1/Th2 cytokine profiling assay: TNF-a", "format": "cell-based, Balb/c mice", "conditions": "Ovalbumin-restimulated spleen cells; peptide 10 micrograms per ml; 72 hours"}, "[21]": {"test_system": "Streptococcus pneumoniae", "format": "cell-based", "conditions": "5 micrograms per ml"}, "[22]": {"test_system": "Human Peripheral Blood Mononuclear Cells (PBMC)", "assay": "T cell proliferation assay (PHA, 3H-thymidine)", "format": "cell-based", "conditions": "peptide 10 micrograms per ml, 3H-thymidine incorporation"}, "[23]": {"test_system": "HCMV strain AD169", "assay": "HCMV plaque reduction assay in MRC-5 cells", "format": "cell-based, human cytomegalovirus", "conditions": "peptide 10 micrograms per ml, 7-10 days", "description": "Ganciclovir was used as positive control."}, "[24]": {"test_system": "CEM-SS cells", "assay": "Cytotoxicity (MTS cell viability) in HIV-1 experiments", "conditions": "peptide 10 micrograms per ml, MTS"}, "[25]": {"test_system": "MRC-5 cells", "assay": "Cytotoxicity testing in MRC-5 cells (CellTiter 96)", "format": "cell-based, human", "conditions": "6 days incubation", "method": "as §1"}},
  "note": "Where a SMILES comes first, the peptide text is derived from it.",
  "data": [
    {"smiles": "CC(C)C[C@H](NC(=O)[C@@H]1CCCN1)C(=O)NCC(N)=O", "note": "[MSHRIF, Pro-Leu-Gly-NH2] (H-Pro-Leu-Gly-NH2)", "values": [
      {"measurement": "viability at 144 h", "setting": "[1]", "result": 100, "unit": "%"},
      {"measurement": "IL-5 spleen cells; TH2 response (% of control)", "setting": "[2]", "result": "56.7 % of control"},
      {"measurement": "% inhibition", "setting": "[3]", "result": 0.0, "unit": "%"},
      {"measurement": "IL-2 spleen cells (% of control)", "setting": "[4]", "result": "0.0 % of control"},
      {"measurement": "% of SAC/IL2 induced control", "setting": "[5]", "result": 79.2, "unit": "%"},
      {"measurement": "% of induction", "setting": "[6]", "result": 0.9, "unit": "%"},
      {"measurement": "IFNγ spleen cells; TH1 response (% of control)", "setting": "[7]", "result": "88.0 % of control"},
      {"measurement": "% of control phagocytosis", "setting": "[8]", "result": 145.7, "unit": "%"},
      {"measurement": "Cell cycle analysis G0/G1", "setting": "[9]", "result": 56.9},
      {"measurement": "Cell cycle analysis G2/M", "setting": "[9]", "result": 11.7},
      {"measurement": "Cell cycle analysis S", "setting": "[9]", "result": 31.4},
      {"measurement": "viability at 144 h, 10 micrograms per ml", "setting": "[10]", "result": 100, "unit": "%"},
      {"measurement": "% of LPS induction", "setting": "[11]", "result": 88.2, "unit": "%"},
      {"measurement": "% inhibition of HBV replication in HEP G2 cells", "setting": "[12]", "result": 10.9, "unit": "%"},
      {"measurement": "% CPE reduction in HIV-1 infected CEM-SS cells", "setting": "[13]", "result": 0.0, "unit": "%"},
      {"measurement": "% prevention of ceramide induced apoptosis", "setting": "[14]", "result": 0.0, "unit": "%"},
      {"measurement": "viability at 10 micrograms per ml", "setting": "[15]", "result": 98.4, "unit": "%"},
      {"measurement": "% inhibition of tube formation", "setting": "[16]", "result": 9.0, "unit": "%"},
      {"measurement": "% inhibition", "setting": "[17]", "result": 100.0, "unit": "%"},
      {"measurement": "% inhibition of migration", "setting": "[18]", "result": "−8", "unit": "%"},
      {"measurement": "IL-4 spleen cells; TH2 response (% of control)", "setting": "[19]", "result": "0.0 % of control"},
      {"measurement": "TNF-a spleen cells; TH1 response (% of control)", "setting": "[20]", "result": "81.4 % of control"},
      {"measurement": "% inhibition", "setting": "[21]", "result": 0.0, "unit": "%"},
      {"measurement": "% of PHA induced control", "setting": "[22]", "result": 80.8, "unit": "%"},
      {"measurement": "% plaque reduction", "setting": "[23]", "result": 0.0, "unit": "%"}
    ]},
    {"smiles": "Cc1cn([C@H]2C[C@H](N=[N+]=[N-])[C@@H](CO)O2)c(=O)[nH]c1=O", "note": "[AZT, reference compound]", "values": [
      {"measurement": "% CPE reduction in HIV-1 infected CEM-SS cells", "setting": "[13]", "result": 99, "unit": "%"},
      {"measurement": "% Cell viability", "setting": "[24]", "result": 97, "unit": "%"}
    ]},
    {"smiles": "Nc1nc(O)c2ncn(COC(CO)CO)c2n1", "note": "[Ganciclovir, reference compound]", "values": [
      {"measurement": "% Cell viability", "setting": "[25]", "result": 100, "unit": "%"}
    ]}
  ]
}
